Source: EP3212201B1, “NUCLEOSIDE KINASE INHIBITORS” (BCI Pharma, priority 2014, dated 2016)

Key:
Test in all cases: FRET-based coupled-enzyme protein kinase inhibition assay
Assay type in all cases: biochemical
Details in all cases: compound at 10 µM, 1% DMSO
[1] = target: MAP4K4 (HGK) (Homo sapiens, UniProt O95819)
Experimental: (§1) A biochemical assay was then performed in order to measure the protein kinase inhibition. It employed a fluorescence-based coupled-enzyme format and was based on the differential sensitivity of phosphorylated and non-phosphorylated peptides to proteolytic cleavage.
(§2) Peptide substrates were labeled with two fluorophores. The two fluorohores used were coumarin (donor) and fluorecein (acceptor), and each of the peptides was bearing one at one end, and one at the other end, which made up fluorescence resonance energy transfer (FRET) pair peptides.
(§3) In a primary reaction, the FRET-peptides were submitted to a phosphorylation reaction, in which one of adenosine triphosphate (ATP)'s phosphate groups was transferred to the peptide in the presence of kinase. When kinase inhibition takes place, the peptide will not be phosphorylated. In a secondary reaction, both the phosphorylated FRET-peptides and the non-phosphorylated FRET-peptides were reacted with a development reagent. It has been observed that non-phosphorylated FRET-peptides were cleaved, whereas the phosphorylted FRET-peptide remained intact.
(§4) Cleavage disrupts FRET between the donor (i.e., coumarin) and acceptor (i.e., fluorescein) fluorophores on the FRET-peptide, whereas uncleaved, phosphorylated FRET-peptides maintain FRET. A ratiometric method, which calculates the Emission Ratio of donor emission to acceptor emission after excitation of the donor fluorophore at 400 nm, is used to quantitate reaction progress, as shown in the equation below. [formula]
(§5) A significant benefit of this ratiometric method for quantitating reaction progress is the elimination of well-to-well variations in FRET-peptide concentration and signal intensities. As a result, the assay yields very high Z'factor values (>0.7) at a low percent phosphorylation. Both cleaved and uncleaved FRET-peptides contribute to the fluorescence signals and therefore to the Emission Ratio. The extent of phosphorylation of the FRET-peptide can be calculated from the Emission Ratio. The Emission Ratio will remain low if the FRET-peptide is phosphorylated (i.e., no kinase inhibition) and will be high if the FRET-peptide is non-phosphorylated (i.e., kinase inhibition).
(§6) The Test Compounds were screened in 1% DMSO. For 10 point titrations, 3-fold serial dilutions were prepared from the starting concentration.
(§7) All Peptide/Kinase Mixtures were diluted to a 2X working concentration in the appropriate Kinase Buffer (50 mM HEPES pH 7.5, 0.01% BRIJ-35, 10 mM MgCl2, 1 mM […]).
(§8) All ATP Solutions were diluted to a 4X working concentration in Kinase Buffer. ATP Km apparent was previously determined using another assay.
(§9) 2.5 µL - 4X Test Compound or 100 nL 100X plus 2.4 µL kinase buffer were mixed together with 2. 5 µL - 2X Peptide/Kinase Mixture and 3. 2.5 µL - 4X ATP Solution.
(§10) The solution was plate-shaked for 30 seconds, then incubated 60 minutes at room temperature for kinase reaction. 5 µL of Development Reagent Solution were then added, followed by a 30-second plate shake and a 60-minute Development Reaction incubation at room temperature. The results were read on a fluorescence plate reader and the data was analyzed.
(§11) The compounds that show the highest Emission Ratio are the ones that also show the highest protein kinase inhibition properties.

[2] = target: T1, DYRK3 (Homo sapiens, UniProt O43781)
T1 sequence (O43781 1-588): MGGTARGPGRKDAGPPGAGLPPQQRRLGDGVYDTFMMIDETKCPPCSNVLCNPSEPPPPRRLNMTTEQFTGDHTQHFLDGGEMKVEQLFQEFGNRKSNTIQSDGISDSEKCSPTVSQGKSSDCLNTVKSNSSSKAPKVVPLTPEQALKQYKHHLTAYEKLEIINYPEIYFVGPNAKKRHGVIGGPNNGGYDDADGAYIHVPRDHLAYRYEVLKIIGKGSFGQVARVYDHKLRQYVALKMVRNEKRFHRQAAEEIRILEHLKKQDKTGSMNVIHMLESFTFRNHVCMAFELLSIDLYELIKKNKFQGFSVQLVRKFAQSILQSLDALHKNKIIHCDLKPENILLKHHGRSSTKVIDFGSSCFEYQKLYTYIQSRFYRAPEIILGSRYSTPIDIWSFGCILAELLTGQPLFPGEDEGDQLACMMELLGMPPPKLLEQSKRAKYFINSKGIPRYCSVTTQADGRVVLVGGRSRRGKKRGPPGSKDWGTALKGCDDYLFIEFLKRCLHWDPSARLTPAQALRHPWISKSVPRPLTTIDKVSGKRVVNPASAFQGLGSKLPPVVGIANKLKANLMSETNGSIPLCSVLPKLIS
Experimental: as §1, §2, §3, §4, §5, §6, §7, §8, §9, §10, §11

[3] = target: ERBB2 (HER2) (Homo sapiens, UniProt P04626)
Experimental: as §1, §2, §3, §4, §5, §6, §7, §8, §9, §10, §11

[4] = target: MET (cMet) (Homo sapiens, UniProt P08581)
Experimental: as §1, §2, §3, §4, §5, §6, §7, §8, §9, §10, §11

[5] = target: MAP2K1 (MEK1) (Homo sapiens, UniProt Q02750)
Experimental: as §1, §2, §3, §4, §5, §6, §7, §8, §9, §10, §11

[6] = target: MARK2 (Homo sapiens, UniProt Q7KZI7)
Experimental: as §1, §2, §3, §4, §5, §6, §7, §8, §9, §10, §11

[7] = target: T2, AURKA (Aurora A) (Homo sapiens, UniProt O14965)
T2 sequence (O14965 1-403): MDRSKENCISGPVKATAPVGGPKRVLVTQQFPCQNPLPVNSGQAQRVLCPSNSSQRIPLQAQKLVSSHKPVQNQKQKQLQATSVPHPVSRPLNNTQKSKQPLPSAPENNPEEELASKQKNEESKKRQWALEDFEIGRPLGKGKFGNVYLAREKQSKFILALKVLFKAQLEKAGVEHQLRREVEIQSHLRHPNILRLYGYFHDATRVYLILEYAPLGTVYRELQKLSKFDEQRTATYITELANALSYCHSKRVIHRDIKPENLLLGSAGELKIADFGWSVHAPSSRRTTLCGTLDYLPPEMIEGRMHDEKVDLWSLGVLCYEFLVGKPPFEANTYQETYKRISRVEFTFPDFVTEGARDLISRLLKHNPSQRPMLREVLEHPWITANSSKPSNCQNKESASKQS
Experimental: as §1, §2, §3, §4, §5, §6, §7, §8, §9, §10, §11

[8] = target: KIT (Homo sapiens, UniProt P10721)
Chain of KIT (P10721 26-976, species assumed): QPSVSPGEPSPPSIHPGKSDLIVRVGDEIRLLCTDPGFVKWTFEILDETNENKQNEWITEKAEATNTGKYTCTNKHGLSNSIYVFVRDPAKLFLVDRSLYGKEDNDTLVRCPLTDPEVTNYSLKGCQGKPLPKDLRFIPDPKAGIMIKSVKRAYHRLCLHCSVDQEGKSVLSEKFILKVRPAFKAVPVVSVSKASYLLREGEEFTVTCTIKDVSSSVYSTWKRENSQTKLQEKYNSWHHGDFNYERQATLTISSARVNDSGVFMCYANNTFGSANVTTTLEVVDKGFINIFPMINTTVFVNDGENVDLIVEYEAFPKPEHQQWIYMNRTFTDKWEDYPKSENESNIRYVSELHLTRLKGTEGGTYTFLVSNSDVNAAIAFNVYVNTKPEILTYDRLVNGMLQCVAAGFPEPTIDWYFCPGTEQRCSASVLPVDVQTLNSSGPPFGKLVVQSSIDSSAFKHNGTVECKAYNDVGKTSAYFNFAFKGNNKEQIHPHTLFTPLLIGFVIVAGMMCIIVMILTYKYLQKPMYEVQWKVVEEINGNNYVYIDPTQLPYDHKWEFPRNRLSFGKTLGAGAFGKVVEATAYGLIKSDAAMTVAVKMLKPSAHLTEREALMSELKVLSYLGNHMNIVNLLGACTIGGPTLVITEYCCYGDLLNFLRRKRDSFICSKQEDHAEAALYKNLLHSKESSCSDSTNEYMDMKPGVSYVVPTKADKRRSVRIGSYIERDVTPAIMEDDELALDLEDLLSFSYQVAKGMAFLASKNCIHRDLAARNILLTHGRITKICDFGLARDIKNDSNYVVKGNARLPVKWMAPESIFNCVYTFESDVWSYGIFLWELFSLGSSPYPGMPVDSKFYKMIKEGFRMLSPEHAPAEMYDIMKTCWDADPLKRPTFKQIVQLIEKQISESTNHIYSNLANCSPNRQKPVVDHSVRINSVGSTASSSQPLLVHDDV
Experimental: as §1, §2, §3, §4, §5, §6, §7, §8, §9, §10, §11

[9] = target: AKT1 (PKB alpha) (Homo sapiens, UniProt P31749)
Chain of AKT1 (PKB alpha) (P31749 whole entry, species assumed): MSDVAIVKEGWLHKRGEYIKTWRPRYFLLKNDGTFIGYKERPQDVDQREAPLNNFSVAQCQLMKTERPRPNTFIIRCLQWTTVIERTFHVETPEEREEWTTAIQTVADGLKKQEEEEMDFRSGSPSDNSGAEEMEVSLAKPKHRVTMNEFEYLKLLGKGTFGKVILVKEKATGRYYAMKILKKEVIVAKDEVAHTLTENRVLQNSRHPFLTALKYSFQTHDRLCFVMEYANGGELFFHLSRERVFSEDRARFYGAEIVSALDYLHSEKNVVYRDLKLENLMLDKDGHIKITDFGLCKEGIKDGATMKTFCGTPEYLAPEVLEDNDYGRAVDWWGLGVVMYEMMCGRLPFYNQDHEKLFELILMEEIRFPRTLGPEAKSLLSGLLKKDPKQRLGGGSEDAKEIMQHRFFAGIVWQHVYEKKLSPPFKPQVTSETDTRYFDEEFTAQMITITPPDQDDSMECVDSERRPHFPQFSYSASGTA
Experimental: as §1, §2, §3, §4, §5, §6, §7, §8, §9, §10, §11

[10] = target: RPS6KB1 (p70S6K) (Homo sapiens, UniProt P23443)
Experimental: as §1, §2, §3, §4, §5, §6, §7, §8, §9, §10, §11

[11] = target: EPHA2 (Homo sapiens, UniProt P29317)
Chain of EPHA2 (P29317 24-976, species assumed): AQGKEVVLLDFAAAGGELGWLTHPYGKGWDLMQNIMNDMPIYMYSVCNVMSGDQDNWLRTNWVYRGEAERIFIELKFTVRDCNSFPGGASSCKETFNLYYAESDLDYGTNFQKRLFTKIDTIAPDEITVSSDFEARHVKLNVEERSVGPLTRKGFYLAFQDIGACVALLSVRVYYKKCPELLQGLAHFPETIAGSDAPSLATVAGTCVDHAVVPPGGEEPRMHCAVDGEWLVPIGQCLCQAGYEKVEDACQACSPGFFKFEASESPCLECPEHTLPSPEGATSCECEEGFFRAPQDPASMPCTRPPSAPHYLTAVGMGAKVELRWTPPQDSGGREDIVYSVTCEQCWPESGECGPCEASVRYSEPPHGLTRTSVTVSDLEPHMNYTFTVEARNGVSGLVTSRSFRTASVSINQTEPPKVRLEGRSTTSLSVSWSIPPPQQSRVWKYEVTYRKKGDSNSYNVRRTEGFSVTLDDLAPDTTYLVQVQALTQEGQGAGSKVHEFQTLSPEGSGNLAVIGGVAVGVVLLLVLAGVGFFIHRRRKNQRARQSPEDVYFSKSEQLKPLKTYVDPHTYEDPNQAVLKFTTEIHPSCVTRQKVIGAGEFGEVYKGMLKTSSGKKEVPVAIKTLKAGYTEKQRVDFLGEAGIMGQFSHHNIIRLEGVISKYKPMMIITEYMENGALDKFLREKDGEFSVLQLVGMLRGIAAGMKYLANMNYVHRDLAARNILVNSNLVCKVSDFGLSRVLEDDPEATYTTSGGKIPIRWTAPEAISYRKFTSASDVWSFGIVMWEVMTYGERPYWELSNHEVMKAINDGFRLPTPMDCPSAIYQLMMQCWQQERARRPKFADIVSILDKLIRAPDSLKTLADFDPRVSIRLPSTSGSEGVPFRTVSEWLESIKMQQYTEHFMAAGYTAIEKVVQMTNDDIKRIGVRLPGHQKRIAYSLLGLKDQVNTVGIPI
Experimental: as §1, §2, §3, §4, §5, §6, §7, §8, §9, §10, §11

[12] = target: ROCK1 (Homo sapiens, UniProt Q13464)
Chain of ROCK1 (Q13464 whole entry, species assumed): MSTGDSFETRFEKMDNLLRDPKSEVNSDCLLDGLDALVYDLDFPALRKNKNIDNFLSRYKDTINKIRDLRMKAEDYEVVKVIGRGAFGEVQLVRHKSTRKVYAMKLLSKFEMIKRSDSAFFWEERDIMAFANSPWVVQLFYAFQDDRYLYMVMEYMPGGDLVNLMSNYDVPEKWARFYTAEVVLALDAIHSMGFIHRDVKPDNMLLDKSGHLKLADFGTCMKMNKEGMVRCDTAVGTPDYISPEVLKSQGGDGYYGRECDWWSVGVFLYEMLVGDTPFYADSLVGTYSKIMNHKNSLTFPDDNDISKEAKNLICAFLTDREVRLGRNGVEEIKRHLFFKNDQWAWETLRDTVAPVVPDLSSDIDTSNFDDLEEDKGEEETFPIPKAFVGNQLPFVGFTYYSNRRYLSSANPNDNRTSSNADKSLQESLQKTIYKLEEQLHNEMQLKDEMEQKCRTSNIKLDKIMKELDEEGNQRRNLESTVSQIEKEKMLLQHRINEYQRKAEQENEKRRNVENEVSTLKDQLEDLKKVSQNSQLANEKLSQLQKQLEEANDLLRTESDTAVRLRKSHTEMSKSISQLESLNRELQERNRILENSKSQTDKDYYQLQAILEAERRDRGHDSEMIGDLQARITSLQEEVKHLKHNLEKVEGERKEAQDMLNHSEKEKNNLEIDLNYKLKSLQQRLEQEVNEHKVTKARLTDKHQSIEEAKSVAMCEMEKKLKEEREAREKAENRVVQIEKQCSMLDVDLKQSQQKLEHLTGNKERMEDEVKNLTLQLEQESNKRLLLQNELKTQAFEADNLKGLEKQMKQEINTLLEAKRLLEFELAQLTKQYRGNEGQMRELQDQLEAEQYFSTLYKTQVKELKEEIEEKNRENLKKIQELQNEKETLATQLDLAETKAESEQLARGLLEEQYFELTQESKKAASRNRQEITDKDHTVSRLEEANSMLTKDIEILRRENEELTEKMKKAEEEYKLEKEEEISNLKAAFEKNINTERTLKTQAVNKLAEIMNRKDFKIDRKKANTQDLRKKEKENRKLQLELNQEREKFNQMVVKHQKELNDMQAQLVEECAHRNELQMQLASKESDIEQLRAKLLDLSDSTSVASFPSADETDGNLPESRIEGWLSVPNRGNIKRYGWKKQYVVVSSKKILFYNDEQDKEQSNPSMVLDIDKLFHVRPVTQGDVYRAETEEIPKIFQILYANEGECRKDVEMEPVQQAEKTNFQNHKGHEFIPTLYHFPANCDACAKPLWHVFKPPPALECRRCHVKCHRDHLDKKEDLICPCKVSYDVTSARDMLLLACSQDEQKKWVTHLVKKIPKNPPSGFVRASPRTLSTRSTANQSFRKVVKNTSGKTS
Experimental: as §1, §2, §3, §4, §5, §6, §7, §8, §9, §10, §11

Chain of MAP4K4 (HGK) (O95819 whole entry, species assumed): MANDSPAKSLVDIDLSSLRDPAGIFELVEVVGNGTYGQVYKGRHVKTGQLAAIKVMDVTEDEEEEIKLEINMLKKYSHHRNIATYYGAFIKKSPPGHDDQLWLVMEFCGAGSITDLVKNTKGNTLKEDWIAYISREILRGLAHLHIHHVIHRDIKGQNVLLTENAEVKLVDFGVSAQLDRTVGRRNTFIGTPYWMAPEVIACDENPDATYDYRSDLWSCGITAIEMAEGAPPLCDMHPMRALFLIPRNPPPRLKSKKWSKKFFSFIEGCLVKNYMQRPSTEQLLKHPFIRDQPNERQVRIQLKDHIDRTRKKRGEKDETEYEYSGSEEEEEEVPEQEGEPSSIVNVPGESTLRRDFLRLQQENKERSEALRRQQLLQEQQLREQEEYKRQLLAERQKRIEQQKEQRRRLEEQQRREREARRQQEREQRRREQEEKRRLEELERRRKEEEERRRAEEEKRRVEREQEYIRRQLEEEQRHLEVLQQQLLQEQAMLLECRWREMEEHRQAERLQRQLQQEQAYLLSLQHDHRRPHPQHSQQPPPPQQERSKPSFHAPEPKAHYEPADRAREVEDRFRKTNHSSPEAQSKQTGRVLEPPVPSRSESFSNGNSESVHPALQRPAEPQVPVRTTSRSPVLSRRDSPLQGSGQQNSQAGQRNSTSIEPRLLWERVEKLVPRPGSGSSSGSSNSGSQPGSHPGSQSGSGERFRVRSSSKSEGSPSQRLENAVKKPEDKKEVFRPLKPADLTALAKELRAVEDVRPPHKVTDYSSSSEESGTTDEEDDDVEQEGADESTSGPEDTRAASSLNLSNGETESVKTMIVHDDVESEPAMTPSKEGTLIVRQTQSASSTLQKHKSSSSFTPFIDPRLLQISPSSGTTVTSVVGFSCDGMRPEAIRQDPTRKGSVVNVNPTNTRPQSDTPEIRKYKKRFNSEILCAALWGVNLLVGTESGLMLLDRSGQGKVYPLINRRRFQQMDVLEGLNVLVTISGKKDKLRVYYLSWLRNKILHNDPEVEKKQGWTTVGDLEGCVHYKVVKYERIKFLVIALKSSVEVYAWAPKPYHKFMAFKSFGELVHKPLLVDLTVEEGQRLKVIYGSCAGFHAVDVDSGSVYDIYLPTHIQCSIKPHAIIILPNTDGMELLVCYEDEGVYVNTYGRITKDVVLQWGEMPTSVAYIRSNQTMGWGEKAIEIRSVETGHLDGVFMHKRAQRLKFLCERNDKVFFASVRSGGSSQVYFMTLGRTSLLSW

| inhibition at 10 µM [1] [%] | inhibition at 10 µM [2] [%] | inhibition at 10 µM [3] [%] | inhibition at 10 µM [4] [%] | inhibition at 10 µM [5] [%] | inhibition at 10 µM [6] [%] | inhibition at 10 µM [7] [%] | inhibition at 10 µM [8] [%] | inhibition at 10 µM [9] [%] | inhibition at 10 µM [10] [%] | inhibition at 10 µM [11] [%] | inhibition at 10 µM [12] [%] | Compound |
| --- | --- | --- | --- | --- | --- | --- | --- | --- | --- | --- | --- | --- |
| 8 | 8 | -5 | -1 | 0 | 8 | -1 | 7 | 4 | 5 | 9 | -2 | Nc1ncnc2c1ncn2[C@@H]1O[C@H](COC(=O)N[C@@H]2CCN(Cc3ccccc3)C2)[C@@H](O)[C@H]1O [Compound C10] |
| -2 | 11 | -19 | -11 | -3 | 6 | -5 | -3 | 3 | 3 | 5 | -10 | Nc1ncnc2c1ncn2[C@@H]1O[C@H](COC(=O)N2CCC[C@H]2CO)[C@@H](O)[C@H]1O [Compound C9] |
| 17 | 3 | -9 | 1 | -3 | 8 | 5 | 3 | 0 | 0 | 1 | -7 | Nc1ncnc2c1ncn2[C@@H]1O[C@H](COC(=O)NCCN2CCCC2=O)[C@@H](O)[C@H]1O [Compound C22] |
| 1 | 7 | 11 | -14 | -1 | -4 | 4 | -7 | -1 | 16 | 9 | -1 | Nc1ncnc2c1ncn2[C@@H]1O[C@H](COC(=O)N2CCC(Cc3ccc(F)cc3)C2)[C@@H](O)[C@H]1O (stereo partly drawn) [Compound C66] |
| 9 | 3 | -7 | -4 | -2 | -3 | -7 | -16 | 2 | 0 | 6 | -15 | Nc1ncnc2c1ncn2[C@@H]1O[C@H](COC(=O)N2CCN(C(=O)N3CCOCC3)CC2)[C@@H](O)[C@H]1O [Compound C89] |
| 17 | 9 | -7 | 2 | -2 | 7 | 6 | -1 | 3 | 3 | 7 | 2 | CC(C)N1CCC(NC(=O)OC[C@H]2O[C@@H](n3cnc4c(N)ncnc43)[C@H](O)[C@@H]2O)CC1 [Compound C19] |
| -6 | 12 | 2 | -3 | 5 | 15 | -7 | -9 | 8 | 13 | 4 | -6 | Nc1ncnc2c1ncn2[C@@H]1O[C@H](COC(=O)N2CCS(=O)(=O)CC2)[C@@H](O)[C@H]1O [Compound C100] |
| 68 | 5 | 5 | -12 | 4 | 2 | 0 | 20 | 2 | 0 | 5 | -8 | CS(=O)(=O)N1CC2(CCN(C(=O)OC[C@H]3O[C@@H](n4cnc5c(N)ncnc54)[C@H](O)[C@@H]3O)CC2)c2ccccc21 [Compound C98] |
| -8 | 7 | -13 | -12 | -3 | 4 | -11 | 10 | 4 | -1 | 4 | -7 | CN(C)CCNC(=O)OC[C@H]1O[C@@H](n2cnc3c(N)ncnc32)[C@H](O)[C@@H]1O [Compound C85] |
| -5 | 6 | 0 | -2 | 3 | 6 | -1 | 12 | 8 | 6 | 4 | -3 | N#CCCN1CCN(C(=O)OC[C@H]2O[C@@H](n3cnc4c(N)ncnc43)[C@H](O)[C@@H]2O)CC1 [Compound C70] |
| 17 | 2 | 8 | -5 | 4 | 18 | 1 | 6 | 0 | 8 | -1 | -12 | Nc1ncnc2c1ncn2[C@@H]1O[C@H](COC(=O)N2CCN(CCc3ccccc3)CC2)[C@@H](O)[C@H]1O [Compound C26] |
